# Reference: US20200147149A1, “COMPOSITIONS AND METHODS FOR THE MODULATION OF GUT SENSORY CELLS” (Duke University, priority 2017, published 2020)
# “Also recorded” adds a separate entry of the source.
# How the values were obtained:
# [1] = system: vagus nerve; experiment: Vagus nerve recording during intraluminal (duodenal) nutrient or CCK perfusion; format: in vivo, mouse; details: for time to maximum peak firing rate after the onset of the stimulus: CCK 870 nM or sucrose 300 mM intraluminal, FIG. 30C
# Experimental: (§1) Wild-type control (n=5-9), CckCRE_ChR2-tdTomato (n=6), CckCRE_Halorhodopsin-YFP (n=5), and Vglut1CRE_ChR2-YFP (n=6) mice were used for vagal recordings. Mice were anesthetized with 3 mg/g-mouse urethane 1 hour before surgery then with 0.5-1% isoflurane. A section of neck skin was removed between the jaw and clavicle. The thyroid was reflected bilaterally, and the carotid bundle was exposed using coarse dissection. The carotid nerve was separated from the vagus nerve using a curved blunt probe. Two platinum iridium wires (0.001″ diameter, PTFE coated, 10% Ir 90% Pt; Medwire by Sigmund Cohn Corp) were looped around the vagus nerve for recording. Mineral oil was used to insulate the vagus nerve from surrounding tissue. The small intestine was exposed by removing a section of skin and peritoneum. A 20 gauge gavage needle was surgically inserted through the stomach wall and into the duodenum. The gavage needle was sutured in place beyond the pyloric sphincter. Saline and stimulant tubes were connected to the gavage needle. For optogenetic experiments, a fiber optic cable (FT020, ThorLabs) was threaded through the gavage needle into the lumen of the duodenum. A perfusion exit incision was made 10 cm distal to the pyloric sphincter. During each recording, PBS was constantly perfused through the duodenum using a peristaltic pump (Cole-Parmer) at the lowest setting for a flow rate of ˜400 uL PBS per minute. Stimulation conditions were applied after recording 2 minutes of baseline activity. During whole nutrient stimulation conditions, PBS perfusion was continuous and 200 μL of ENSURE® was perfused through the second tube for 1 minute using a syringe pump. […] During CCK stimulation conditions, PBS perfusion was continuous, and 200 μL of 2.9 μM CCK octapeptide-sulfated (BaChem) was perfused through the second tube for 1 minute using a syringe pump (Fusion 200, Chemyx) for a final concentration of ˜870 nM CCK in PBS (10 μg/kg dose). […] Final stimulant concentrations were determined using the ratio of dilution and confirmed by osmolarity testing (Model 3320 Osmometer, Advanced Instruments Inc.). During 473 nm laser stimulation conditions, PBS perfusion was continuous, and the laser was pulsed for 1 minute at 40 Hz, 4 volts peak voltage, 20% duty cycle (473 nm, 80 mW laser, RGBlase).
# Extracellular voltage was recorded from a pair of platinum iridium wires as described above. A differential amplifier and bandpass filter (1000× gain, 300 Hz-5 kHz bandpass filter; A-M Systems LLC) was used and the signal was processed using a data acquisition board and software (20 kHz sampling rate; Signal Express, National Instruments Corp). The raw data was analyzed using a spike sorting algorithm (MATLAB by MathWorks). Spikes were detected using simple threshold detection based on RMS noise. The firing rate was calculated using a Gaussian kernel smoothing algorithm (200-ms time scale).
# Stimulation response was quantified as the maximum firing rate after stimulation (stimulant conditions) or during recording (baseline). Each trial serves as its own control by normalizing the maximum firing rate to the average baseline firing rate (defined as the first two minutes of recording, prior to stimulation onset). Mice were excluded from analysis if no sucrose response was present throughout recording. Maximum firing rate was analyzed across genotype, stimulation condition, and their interaction term by ANOVA, followed by HSD post hoc testing (iMP by SAS Institute).
# [2] = system: glutamate receptor; experiment: Antagonist studies: glutamate receptor antagonists on vagal nerve firing rate response to sucrose or 473 nm laser; format: in vivo, mouse; details: sucrose-300 mM; for time to peak (speed) of vagal response to sucrose: after KA/AP3 (150 μg/kg kynurenic acid + 1 mg/kg AP-3) or KA 150 μg/kg alone, sucrose alone 92.8 seconds, 1 mg/kg
# Experimental: as §1, with “During 473 nm laser stimulation conditions, PBS perfusion was continuous, and the laser was pulsed for 1 minute at 40 Hz, 4 volts peak voltage, 20% duty cycle (473 nm, 80 mW laser, RGBlase).” left out
# Extracellular voltage was recorded from a pair of platinum iridium wires as described above. […] The raw data was analyzed using a spike sorting algorithm (MATLAB by MathWorks). Spikes were detected using simple threshold detection based on RMS noise. The firing rate was calculated using a Gaussian kernel smoothing algorithm (200-ms time scale).
# Stimulation response was quantified as the maximum firing rate after stimulation (stimulant conditions) or during recording (baseline). […] Maximum firing rate was analyzed across genotype, stimulation condition, and their interaction term by ANOVA, followed by HSD post hoc testing (iMP by SAS Institute).
# [3] = system: ionotropic glutamate receptor; experiment: Patch-clamp of nodose neurons co-cultured with CckCRE_ChR2 cells, photo-stimulation and microperfusion of glutamate blocker; format: cell-based, mouse; details: kynurenic acid 3 mM, n=4 pairs
# Experimental: The small intestines of CckGFP and CckCRE_ChR2-tdTomato mice were dissected and flushed twice with cold PBS. The intestine was cut open lengthwise and cut again into ˜1 cm pieces. Tissue pieces were incubated with 3 mM EDTA at 4° C. for 15 minutes then at 37° C. for 15 minutes. New cold PBS was added and villi and crypts were mechanically detached. Villi and crypts were spun down and further digested in Collagenase and Dispase. Cells were spun down and re-suspended in L-15 media with 5% FBS and DNase to prevent cell clumping. Cells were passed through a 70 μm then 40 μm cell strainer to isolate single cells. Then cells were sorted using Fluorescence Activated Cell sorting (BD FACSAria) selecting for GFP fluorescence cells. […]
# Enteroendocrine cells and nodose neurons were co-cultured as described above. […] CCK-producing enteroendocrine cells were identified by GFP expression and neurons by their morphology and lack of fluorescence. […] At the resting membrane potential, cell properties such as input resistance, and spike threshold were determined using 200 ms steps from −40 pA to 100 pA in 20 pA increment. After that, baseline neuron activity was recorded in current-clamp or voltage-clamp for 5 min before exposure to glucose (20 mM) for 30-60 sec, followed by a wash with no glucose-containing extracellular solution. […] EPSC responses were recorded for 1 second after light stimulation. […]
# [4] = system: iGluSnFR-HEK cells; experiment: iGluSnFR-HEK cells cultured alone, multiphoton imaging; format: cell-based; details: glutamate 100 μM
# Experimental: HEK 293/17 cells (ATCC CRL-11268) were maintained in DMEM (Gibco 11965) supplemented with 10% FBS (Corning 35-010-CV), Glutamax, and non-essential amino acids (both Gibco). Cells were transfected with 1 ug plasmid pCMV(MinDis) iGluSnFR (Addgene 41732) using 1 ul Lipofectamine 2000 in Optimem (Gibco) in 24-well plates.
# The 5.2 Kb iGluSnFR (pCMV(MinDis).iGluSnFR was a gift from Loren Looger; Addgene plasmid #41732) was moved to the zeocin resistant backbone of Addgene #51694 (DRH296: FCK-Optopatch2 was a gift from Adam Cohen) as a NdeI+XhoI fragment. The resulting plasmid (pMEK8) was transfected into HEK 293/17 cells (ATCC CRL-11268) using 1 μl Lipofectamine 2000/ug DNA. Cells were maintained in DMEM (Gibco 11965) supplemented with 10% FBS (Corning 35-010-CV), Glutamax, non-essential amino acids (both Gibco) and 3 μl/ml zeocin ([…], Invitrogen).
# CckCRE_tdTomato enteroendocrine cells were isolated as described above. Isolated cells were mixed with iGluSnFR-HEK cells at a ratio of 10:1, then plated on 1% Matrigel coated coverslips. Control iGluSnFR-HEK cells were plated alone. Cells were incubated for 12-18 hours before imaging. Coverslips were imaged using a multiphoton microscopy system (Bruker Ultima IV with a Chameleon Vision II tunable laser). Imaging frames were captured at 1.876 fps, using 920 nm light. Imaging series were analyzed using Fiji (ImageJ), and cell traces were plotted with Excel.
# [5] = system: intestinal CCK enteroendocrine cells; experiment: Calcium imaging (GCaMP6s) of enteroendocrine cells in CckCRE_tdTomato intestinal organoids; format: cell-based, mouse; details: 10 mM sucrose; 40 mM KCl control; n=5
# Experimental: For neurons, Phox2bCRE_GCaMP6s (n=3) nodose neurons were dissociated and plated. Nodose ganglia were dissected and digested in Liberase (Roche, 5401054001). Neurons were washed and filtered through a 70 μm cell strainer, then plated on 12 mm coverslips and placed in an incubator overnight. Cells were imaged 1-2 days later. Coverslips were placed in the recording chamber of a Zeiss Examiner Z1 and imaged with a Hamamatsu camera (Orca-flash4.0; C11440) using the Zeiss ZEN software package. For enteroendocrine cells, CckCRE_tdTomato organoids with transduced with ΔG-rabies-GCaMP6s. Organoids were imaged using multi photon microscopy 3-4 days after transduction. Imaging buffer (in mM: 140 NaCl, 5 KCl, 2 CaCl2, 2 MgCl2, 10 HEPES) was continuously perfused over the coverslips. […] Images were analyzed with Fiji ([…]), and cell traces were plotted with Matlab.
# [6] = system: vagus nerve; experiment: Vagus nerve recording during intraluminal (duodenal) nutrient or CCK perfusion; format: in vivo, mouse; details: sucrose 300 mM delivered intraperitoneally, wild-type mice
compound,measurement,setting,value
CCK8: CCK octapeptide-sulfated (BaChem) [reference compound],time to maximum peak firing rate after the onset of the stimulus,[1]; wild-type mice,about 180 s
same,vagal firing rate (maximum),"[1]; CCK8 870 nM (10 μg/kg) infused into the intestinal lumen, wild-type mice",increased the vagal firing rate to a similar maximum reached by sucrose
O=C(O)c1cc(=O)c2ccccc2[nH]1 [kynurenic acid],effect on maximum (peak) normalized vagal firing rate in response to sucrose,"[2]; KA/AP3 = 150 μg/kg kynurenic acid + 1 mg/kg AP-3, or KA 150 μg/kg alone, wild-type mice",do not
same,time to peak (speed) of vagal response to sucrose,[2],about 180 seconds
same,time to peak (speed) of vagal response to sucrose,[2]; listed as KA,198 s
same,effect on rapid (first 60 seconds) vagal response to sucrose,"[2]; kynurenic acid alone (150 μg/kg; dose range 1.5 μg/kg-1.5 mg/kg in FIG. 32), 1.5 mg/kg",suppressed; also recorded: attenuates rapid vagal response but not prolonged vagal response
same,effect on light (470/473 nm) evoked EPSCs in connected nodose neurons,[3],abolished
same,light evoked response after the blocker is washed away,[3]; wash,recovered
"N[C@@H](CCC(=O)O)C(=O)O [glutamate, reference compound]",fluorescence response of iGluSnFR-HEK cells cultured alone,[4],did respond; also recorded: causes an increase in fluorescence
OC[C@H]1O[C@@](CO)(O[C@H]2O[C@H](CO)[C@@H](O)[C@H](O)[C@H]2O)[C@@H](O)[C@@H]1O [sucrose],magnitude of the sugar response as percent fluorescence of the KCl response,[5],72.4±10.6%
same,vagal firing rate,[6],not observed; also recorded: did not increase vagal firing rate
same,time to maximum peak firing rate after the onset of the stimulus,[1]; wild-type mice,about 60 s
same,vagal response,"[1]; luminal sucrose 300 mM, CckCRE_Halo-YFP mice, no laser",elicited a vagal response
same,vagal firing rate,"[1]; sucrose 100 mM-300 mM (300 mM in figures) perfused intraluminally, wild-type mice, vs baseline",significantly increased; also recorded: stimulate
same,time to peak of vagal response,"[1]; sucrose-300 mM without antagonist, wild-type mice, average, FIG. 25D",92.8 s
same,vagal activity,"[1]; sucrose-300 mM, Vglut1CRE_ChR2 mice",stimulate vagal activity
